Assay results published in ChEMBL document CHEMBL3988442, “University of Dundee, Small-Polar-MMV Screening Library” (2021).
Values joined by “and” are separate entries in the source; they are usually repeats but may differ in a detail not shown here. Equal values may be shown once.

Molecular target: T1, Histidine--tRNA ligase (Leishmania infantum, UniProt A4I591)
T1 sequence (A4I591 whole entry): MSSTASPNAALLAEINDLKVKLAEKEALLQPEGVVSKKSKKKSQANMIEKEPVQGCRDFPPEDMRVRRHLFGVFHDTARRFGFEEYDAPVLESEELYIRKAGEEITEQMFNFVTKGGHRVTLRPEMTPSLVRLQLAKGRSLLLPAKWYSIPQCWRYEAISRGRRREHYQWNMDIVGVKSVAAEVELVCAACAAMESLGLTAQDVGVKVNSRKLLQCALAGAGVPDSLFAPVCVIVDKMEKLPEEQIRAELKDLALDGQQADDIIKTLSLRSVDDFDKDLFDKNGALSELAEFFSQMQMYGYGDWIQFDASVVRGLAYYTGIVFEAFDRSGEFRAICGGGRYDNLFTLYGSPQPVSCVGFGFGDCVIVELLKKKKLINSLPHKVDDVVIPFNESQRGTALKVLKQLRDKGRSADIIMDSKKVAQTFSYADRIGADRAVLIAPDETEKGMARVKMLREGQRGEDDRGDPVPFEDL
Test: Leishmania infantum Histidine tRNA synthetase (LdHisRS)
Type: functional

Compound | IC50
Cc1nnc(NCCc2coc(-c3ccc(F)cc3)n2)c(C#N)c1C | > 100 µM and 55.9 µM
Cc1nnc(NCCc2coc(-c3ccccc3)n2)c(C#N)c1C | 74.7 µM and 55.7 µM
O=C(CCNCc1cccc(O)c1)N1CCc2sccc2C1 | 17.7 µM and 23 µM
Cc1nnc(N2CCc3cnc(C(C)C)nc3C2)c(C#N)c1C | > 100 µM
COc1ccc(C(C)=O)cc1CN1CCn2cccc2C1C (stereo not drawn) | 31.8 µM and 50.6 µM
CN(CCOc1ccccc1)C(=O)Nc1cccn(C)c1=O | 15 µM and 15.4 µM
Cc1ccn(C)c(=O)c1NC(=O)N(C)Cc1cccc(OC(C)C)c1 | 18.1 µM and 21.6 µM
CCC(C#N)NC(=O)CCCOc1cccc(C(C)=O)c1 (stereo not drawn) | > 100 µM
Cn1cccc(NC(=O)NCCc2cccc(O)c2)c1=O | 15.5 µM and 13 µM
Cn1cccc(NC(=O)NCc2cccc(CO)c2)c1=O | > 100 µM
Cc1cn2nc(N(C)C3CCCN(c4cccnn4)C3)sc2n1 (stereo not drawn) | 29.6 µM and 43.5 µM
Cn1nc2c(cc1=O)CN(c1nc3ccccc3s1)CC2 | 72.4 µM and 80.9 µM
CCn1nc2c(cc1=O)CN(c1nc3ccccc3s1)CC2 | 62.6 µM and 73.7 µM
Cc1ccccc1CC(C)(C)NC(=O)c1cccc(OCC(N)=O)c1 | 77.2 µM and > 100 µM
Cc1csc(CN(C)C(C)C(=O)N2CCc3ccccc3C2)n1 (stereo not drawn) | > 100 µM
NC(=O)CN1CCN(CC2CC2)c2ccccc21 | > 100 µM
NC(=O)NC(=O)CCN1CCN(CC2CC2)c2ccccc21 | > 100 µM
Cc1nnc(NCC(c2ccco2)N(C)C)c(C#N)c1C (stereo not drawn) | 24.8 µM and 24.1 µM
Cn1cc(NC(=O)N2CCN(Cc3cscn3)CC2)ccc1=O | 8.51 µM and 8.59 µM
CCCn1nc2c(cc1=O)CN(Cc1ccccn1)CC2 | 20.9 µM and 17.8 µM

Compound | IC50
CCCn1nc2c(cc1=O)CN(Cc1cc(C)no1)CC2 | 24.8 µM and 27.4 µM
CN(C)CCn1c(=O)oc2ccc(NC(=O)N3CCCCCC3)cc21 | > 100 µM
CC(C)c1cc(NC(=O)CN2CCc3nn(C)c(=O)cc3C2)on1 | > 100 µM
Cc1cc(NC(=O)CN2CCc3nn(C)c(=O)cc3C2)no1 | > 100 µM
Cn1nc2c(cc1=O)CN(CC(=O)Nc1cc(C(C)(C)C)no1)CC2 | > 100 µM
Cn1nc2c(cc1=O)CN(CC(=O)Nc1nccs1)CC2 | > 100 µM
NC(=O)c1ccc(N2CCCCC2)c(NC(=O)c2ccc(F)cc2Cl)c1 | 71.9 µM and 52.6 µM
NC(=O)c1ccc(N2CCCCC2)c(NC(=O)c2cc(Br)ccc2Cl)c1 | 30.2 µM and 29.7 µM
O=C(Nc1cccn(Cc2ccccc2)c1=O)c1ccncc1F | 35.7 µM and 31.2 µM
NC(=O)CCS(=O)(=O)Cc1ccc(OCC(F)(F)F)cc1 | > 100 µM and 68.4 µM
O=C(NC1CCCN(c2ccc(OC(F)F)cc2)C1)c1ccon1 (stereo not drawn) | > 100 µM
COc1ccc(NC(=O)C2CCCO2)cc1OCc1cccnc1 (stereo not drawn) | > 100 µM and 72.6 µM
CCCn1cc(NC(=O)c2cccc3cccnc23)ccc1=O | 40.1 µM and 37.9 µM
O=C(Nc1ccc(=O)n(Cc2ccccc2Cl)c1)C1CC1 | 6.94 µM and 5.93 µM
O=C1NCC(C(=O)Nc2ccc(=O)n(Cc3ccccc3Cl)c2)N1 (stereo not drawn) | 12.7 µM and 15.3 µM
Cc1cc(O)ncc1NS(=O)(=O)c1cccc(F)c1F | 45.7 µM and 49.5 µM
NCc1ccnc(Oc2ccccc2)c1 | 39.2 µM and 30.9 µM
COc1cccc(CN(C)C(=O)CN2CC(n3nc(C)cc3C)C2)c1 | 37.2 µM and 43.7 µM
O=C(NCC1CC1)c1cc2c(s1)CCN2c1ncccn1 | 63 µM and 54 µM
CCn1nnc2c1C(COC)CN(Cc1ccco1)C2 (stereo not drawn) | > 100 µM

Compound | IC50
Cn1nccc1-c1ncc(-c2cc(C(=O)O)n(CC3CC3)c2)cn1 | > 100 µM
CN(C)CCN1CCO[C@@H]2CCN(C(=O)c3cccn3C)CC[C@H]21 | > 100 µM
CC(=O)N1CCO[C@@H]2CN(S(=O)(=O)c3ccc(C)cc3)CC[C@@H]2C1 | > 100 µM
Nc1cccnc1N1CCCCCC1 | 16.4 µM and 17.4 µM
Cn1ccnc1Sc1ccc(N)cn1 | > 100 µM
COCCN1CCCn2cnc(CNC3CCCC3)c2C1 | 9.13 µM and 12.8 µM
Cc1cc(C(=O)N2CC[C@@H](N(C)C)[C@@H]2Cc2ccccc2)no1 | > 100 µM
O=C(C1CCCCC1)N1C[C@@H]2CCN(c3cnccn3)C[C@@H]2C1 | 66.8 µM and 70.3 µM
CCc1ccc2c(C3CN(CC4CCC4)C3)ncn2c1 | 15.7 µM and 18.7 µM
O=C(c1ccc2[nH]ccc2c1)N1Cc2nc(CN3CCCCC3)oc2C1 | 33.7 µM and 23.5 µM
Fc1ccc(N2CCC3(CC2)CC(OCc2cccnc2)CO3)cc1 (stereo not drawn) | 23.3 µM and 15.8 µM
CC(=O)NCC(=O)N1Cc2nccn2CC(COc2cccnc2)C1 (stereo not drawn) | > 100 µM
Cc1ccc(CNC(=O)c2nc3c(o2)CN(C(=O)c2cccnc2)C3)o1 | 37.2 µM and 54.7 µM
O=C(NCc1ccco1)[C@@H]1CC[C@@H]2[C@@H](CCN2Cc2ccc(F)cc2)O1 | 59.4 µM and 27.4 µM
c1cncc(-c2ccc3c(c2)C2(CC3)CCN(c3nncs3)CC2)c1 | 32.5 µM and 45.4 µM
CCn1nnc2c1C(COCC(=O)N(C)C)CN(Cc1ccco1)C2 (stereo not drawn) | > 100 µM
CCS(=O)(=O)Nc1ccc2c(c1)C1(CCOCC1)CN2C | 13.4 µM and 11 µM
CCN1CC2(CCOCC2)c2cc(NS(=O)(=O)CC)ccc21 | 8.64 µM and 21.4 µM
